Measured values published in patent US11260066B2, “Inhibiting reduction of lean body mass and inhibiting accumulation of liver fat by administering allulose” (SAMYANG CORPORATION, priority 2017, dated 2022).

Columns and labels:
[1] = Blood chemical test (Alkaline phosphatase, AST, ALT, γ-GTP), human application test; type: in vivo; conditions: for ALT(SGPT), Mean / ALT(SGPT), Median / AST(SGOT), Mean / AST(SGOT), Median / Alkaline phosphatase, Mean / Alkaline phosphatase, Median / γ-GTP, Mean / γ-GTP, Median: ITT 33, time point not given; for ALT, change at 12 weeks compared to the base time / Alkaline phosphatase, change at 12 weeks compared to the base time / γ-GTP, change at 12 weeks compared to the base time: increased in control
From the text: After conducting a screening test for those who heard the detailed description of the purpose and research method of the present example and agreed in writing as subjects, those who met the selection/exclusion criteria were selected. The specific selection criteria are as follows, and the final selected subjects are 99 men and women who are overweight or obese, and the demographic information of the selected subjects is shown in the following Table 1. Ninety nine (99) subjects were randomly assigned to the high-dose group, low-dose group or control group, with including 33 subjects in each test group. In three test groups, the products were mixed in 100 ml of water and were administered orally twice a day. As the daily dose for one test subject, 12 g allulose in the high-dose group, 6 g allulose and 6 g anhydrous glucose in the low-dose group, and 12 g anhydrous glucose in the control group were divided and provided twice a day. It was administered from the day after the random assignment day (0 day), and was taken with drinking water twice at morning and evening with meals for 12 weeks. (4) Blood chemical test result The test items performed at screening visit (visit1), visit2 and end visit (visit5) were Alkaline phosphatase, AST, ALT, and γ-GTP. In case of continuous data, for the average change compared to the base time, technical statistics (mean, standard deviation, median value, minimum value, maximum value) were proposed for the average change compared to the base time. The comparative statistic test for the three groups was performed using ANOVA or Kruscal-Wallis test by testing whether data were normally distributed. When there was a significant difference between the three groups, the multiple comparison was conducted through Tukey-Kramer method. In order to find out whether there was a difference in the mean change in a group, it was analyzed using Paired t-test or Wilcoxon's signed rank test. In case of categorical data, technical statistics (frequency, percentage) were proposed, and comparative statistic test was performed between three groups using Chi-square test or Fisher' exact test.

[2] = set-up: species or system human; conditions: in vivo
[3] = set-up: species or system human; conditions: in vivo; remark: listed apart in the source
Experimental: Furthermore, the difference of the average change between the three groups at 12 weeks compared to the base time for the items was analyzed in the laboratory test.

[4] = Liver CT: degree of fat deposition in the liver (HU of liver and spleen), human application test; type: in vivo; conditions: for Liver HU Mean, 12 W, Mean / Liver - Spleen HU (Liver minus Spleen), 12 W, Mean / Spleen HU Mean, 12 W, Mean: 12 weeks; for Liver HU Mean, 12 W, Mean / Liver HU Mean, Difference (12 W vs base line): ITT 33
From the text: After conducting a screening test for those who heard the detailed description of the purpose and research method of the present example and agreed in writing as subjects, those who met the selection/exclusion criteria were selected. The specific selection criteria are as follows, and the final selected subjects are 99 men and women who are overweight or obese, and the demographic information of the selected subjects is shown in the following Table 1. Ninety nine (99) subjects were randomly assigned to the high-dose group, low-dose group or control group, with including 33 subjects in each test group. In three test groups, the products were mixed in 100 ml of water and were administered orally twice a day. As the daily dose for one test subject, 12 g allulose in the high-dose group, 6 g allulose and 6 g anhydrous glucose in the low-dose group, and 12 g anhydrous glucose in the control group were divided and provided twice a day. It was administered from the day after the random assignment day (0 day), and was taken with drinking water twice at morning and evening with meals for 12 weeks. In order to evaluate the degree of fat deposition in the liver at the time of hospital visit 2 and visit 5, the HU of liver, HU of spleen, HU difference of liver and spleen (Liver minus Spleen), and HU ratio of liver and spleen (Ratio Between Liver and Spleen) after 12 weeks compared to the base time were measured. CT attenuation values (Hounsfield units) were measured in regions of interest (ROI) selected as a homogeneous place avoiding blood vessels in the right lobe of liver and spleen in one non-contrast-enhanced abdominal CT image including both liver and spleen three times, and the average value was taken as each CT attenuation number. Then, the size of each region of interest was designated equally as 120 mm^2. Through liver CT, for HU of liver, HU of spleen, HU difference of liver and spleen (Liver minus Spleen), and HU ratio of liver and spleen (Ratio Between Liver and Spleen) after 12 weeks, technical statistics (mean, standard deviation, median value, minimum value, maximum value) were proposed for the average change compared to the base time. The comparative statistic test for the three groups was performed using ANOVA or Kruscal-Wallis test by testing whether data were normally distributed. When there was a significant difference between the three groups, the multiple comparisons were conducted through Tukey-Kramer method. In order to find out whether there was a difference in the mean change in a group, it was analyzed using Paired t-test or Wilcoxon's signed rank test.

[5] = Glucose index test (FBS, Insulin, HbA1c) on collected blood, human application test; type: in vivo; conditions: for Glucose, 12 W, Mean / Glucose, 12 W, Median / HbA1, 12 W, Mean / HbA1, 12 W, Median / Insulin, 12 W, Mean / Insulin, 12 W, Median / Glucose, Difference (12 W vs baseline) / Insulin, Difference (12 W vs baseline): ITT 33
From the text: After conducting a screening test for those who heard the detailed description of the purpose and research method of the present example and agreed in writing as subjects, those who met the selection/exclusion criteria were selected. The specific selection criteria are as follows, and the final selected subjects are 99 men and women who are overweight or obese, and the demographic information of the selected subjects is shown in the following Table 1. Ninety nine (99) subjects were randomly assigned to the high-dose group, low-dose group or control group, with including 33 subjects in each test group. In three test groups, the products were mixed in 100 ml of water and were administered orally twice a day. As the daily dose for one test subject, 12 g allulose in the high-dose group, 6 g allulose and 6 g anhydrous glucose in the low-dose group, and 12 g anhydrous glucose in the control group were divided and provided twice a day. It was administered from the day after the random assignment day (0 day), and was taken with drinking water twice at morning and evening with meals for 12 weeks. At the time of screening hospital visit (visit1), visit2 and final visit (visit5), FBS, Insulin, and HbAlc test was conducted for the collected blood. After calculating the average change of the glucose index (FBS, Insulin, HbAlc) after 12 weeks compared to the base time, technical statistics (mean, standard deviation, median value, minimum value, maximum value) were obtained. The comparative statistic test for the three groups was performed using ANOVA or Kruscal-Wallis test by testing whether data were normally distributed. When there was a significant difference between the three groups, the multiple comparisons were conducted through Tukey-Kramer method. In order to find out whether there was a difference in the mean change in a group, it was analyzed using Paired t-test or Wilcoxon's signed rank test.

[6] = Body fat and lean body mass measured by DXA, 12-week human application test; type: in vivo; conditions: for Lean, 12 W, Mean / Fat, Difference (average change at 12 weeks compared to base time) / Lean, Difference (12 W vs baseline): ITT 33; for Fat, 12 W, Mean: ITT 33 overweight/obese adults
Experimental: After conducting a screening test for those who heard the detailed description of the purpose and research method of the present example and agreed in writing as subjects, those who met the selection/exclusion criteria were selected. The specific selection criteria are as follows, and the final selected subjects are 99 men and women who are overweight or obese, and the demographic information of the selected subjects is shown in the following Table 1. The efficacy test was performed by dividing 99 selected test subjects into 3 groups, and by providing three products to the high-dose group (33 people), low-dose group (33 people), and control group (33 people), respectively. The allulose high-dose product was provided to the high-dose test group, and the allulose low-dose product was provided to the low-dose test group, and placebo product was provided to the control group. Ninety nine (99) subjects were randomly assigned to the high-dose group, low-dose group or control group, with including 33 subjects in each test group. In three test groups, the products were mixed in 100 ml of water and were administered orally twice a day. As the daily dose for one test subject, 12 g allulose in the high-dose group, 6 g allulose and 6 g anhydrous glucose in the low-dose group, and 12 g anhydrous glucose in the control group were divided and provided twice a day. It was administered from the day after the random assignment day (0 day), and was taken with drinking water twice at morning and evening with meals for 12 weeks. At the random assignment day (0 day), the efficacy evaluation items and safety evaluation items such as DXA measurement and the like were checked, and the evaluation items were also checked through hospital outpatient visit at 4 weeks, 8 weeks and 12 weeks from the day of beginning administration of test products. In addition, during the human application test, the usual physical activity of subjects was investigated using Korean version of International Physical Activity Questionnaire (IPAQ). During the human application test period, the subjects were trained to maintain the activity amount being similar to normal physical activity. At each hospital outpatient visit, the amount of meal intake was examined by the recording board made by the subjects. The subjects were trained to maintain the amount of meal intake being similar to the usual amount with avoiding overeating condition. At the time of second hospital visit (visit 2) and final hospital visit (visit 5), the body fat ratio and body fat were measured using prodigy DXA of U.S. Lunar Company. For the body fat measured by DXA, after calculating the change of the body fat after 12 weeks compared to the base time, technical statistics (mean, standard deviation, median value, minimum value, maximum value) were obtained. The comparative statistic test for the three groups was performed using ANOVA or Kruscal-Wallis test by testing whether data were normally distributed. When there was a significant difference between the three groups, the multiple comparison was conducted through Tukey-Kramer method. In order to find out whether there was a difference in the mean change in a group, it was analyzed using Paired t-test or Wilcoxon's signed rank test.

[7] = high-dose group: allulose 12 g/d oral
[8] = high-dose group: allulose 12 g/d, statistically significant before/after
[9] = low-dose group: allulose 6 g/d + anhydrous glucose 6 g/d oral
[10] = low-dose group: allulose 6 g/d + glucose 6 g/d, statistically significant before/after
[11] = high-dose group: allulose 12 g/d oral, N 33
[12] = low-dose group: allulose 6 g/d + anhydrous glucose 6 g/d oral, N 32
[13] = high-dose group: allulose 12 g/d oral, 12 weeks
[14] = low-dose group: allulose 6 g/d + anhydrous glucose 6 g/d oral, 12 weeks

Compound: O=C(CO)C(O)C(O)C(O)CO (stereo not shown) [allulose]
- ALT(SGPT), Mean [1, 7]: 22.21 U/L
- ALT(SGPT), Median [1, 7]: 16.00 U/L
- AST(SGOT), Mean [1, 7]: 18.76 U/L
- AST(SGOT), Median [1, 7]: 18.00 U/L
- Alkaline phosphatase, Mean [1, 7]: 183.21 U/L
- Alkaline phosphatase, Median [1, 7]: 169.00 U/L
- γ-GTP, Mean [1, 7]: 18.18 U/L
- γ-GTP, Median [1, 7]: 14.00 U/L
- ALT, change at 12 weeks compared to the base time [1, 8]: reduced
- Alkaline phosphatase, change at 12 weeks compared to the base time [1, 8]: reduced
- γ-GTP, change at 12 weeks compared to the base time [1, 8]: reduced
- ALT(SGPT), Mean [1, 9]: 26.88 U/L
- ALT(SGPT), Median [1, 9]: 19.00 U/L
- AST(SGOT), Mean [1, 9]: 22.64 U/L
- AST(SGOT), Median [1, 9]: 18.00 U/L
- Alkaline phosphatase, Mean [1, 9]: 178.97 U/L
- Alkaline phosphatase, Median [1, 9]: 170.00 U/L
- γ-GTP, Mean [1, 9]: 33.58 U/L
- γ-GTP, Median [1, 9]: 19.00 U/L
- ALT, change at 12 weeks compared to the base time ([1]; low-dose group: allulose 6 g/d + glucose 6 g/d): reduced
- Alkaline phosphatase, change at 12 weeks compared to the base time [1, 10]: reduced
- γ-GTP, change at 12 weeks compared to the base time [1, 10]: reduced
- diastolic blood pressure and pulse rate [2]: did not showed statistically significant difference between three groups
- normality of the urine test [3]: no clinically significant abnormal subject
- Liver HU Mean, 12 W, Mean [4, 7]: 57.49 HU
- Liver - Spleen HU (Liver minus Spleen), 12 W, Mean [4, 11]: 7.19 HU
- Spleen HU Mean, 12 W, Mean [4, 11]: 50.30 HU
- Liver HU Mean, Difference (12 W vs base line) [4, 7]: −0.78 ± 5.60 HU
- Liver - Spleen HU, Difference (12 W vs base line) [4, 11]: −1.28 ± 5.36 HU
- Spleen HU Mean, Difference (12 W vs base line) [4, 11]: 0.50 ± 2.77 HU
- Liver HU Mean, 12 W, Mean [4, 9]: 55.17 HU
- Liver - Spleen HU (Liver minus Spleen), 12 W, Mean [4, 12]: 4.75 HU
- Spleen HU Mean, 12 W, Mean [4, 12]: 50.66 HU
- Liver HU Mean, Difference (12 W vs base line) [4, 9]: −0.69 ± 5.17 HU
- Liver - Spleen HU, Difference (12 W vs base line) [4, 12]: −0.55 ± 5.43 HU
- Spleen HU Mean, Difference (12 W vs base line) [4, 12]: −0.41 ± 2.34 HU
- hypoglycemic effect (Glucose, Insulin, HbA1c) ([5]; high- and low-dose groups, 12 weeks, subjects with normal blood sugar): no hypoglycemic effect
- Glucose, 12 W, Mean [5, 13]: 94.58 mg/dL
- Glucose, 12 W, Median [5, 13]: 94.00 mg/dL
- HbA1, 12 W, Mean [5, 13]: 5.66%
- HbA1, 12 W, Median [5, 13]: 5.6%
- Insulin, 12 W, Mean [5, 13]: 8.7 µIU/mL
- Insulin, 12 W, Median [5, 13]: 7.5 µIU/mL
- Glucose, Difference (12 W vs baseline) [5, 7]: -0.12 ± 8.35 mg/dL
- Insulin, Difference (12 W vs baseline) [5, 7]: 1.75 ± 5.33 µIU/mL
- Glucose, 12 W, Mean [5, 14]: 97.18 mg/dL
- Glucose, 12 W, Median [5, 14]: 97.00 mg/dL
- HbA1, 12 W, Mean [5, 14]: 5.64%
- HbA1, 12 W, Median [5, 14]: 5.6%
- Insulin, 12 W, Mean [5, 14]: 9.18 µIU/mL
- Insulin, 12 W, Median [5, 14]: 7.1 µIU/mL
- Glucose, Difference (12 W vs baseline) [5, 9]: 2.42 ± 10.10 mg/dL
- Insulin, Difference (12 W vs baseline) [5, 9]: 1.27 ± 5.15 µIU/mL
- lean body mass before and after administration ([6]; allulose administration groups, 12 weeks, control reduced by 0.61 kg): did not show a difference before and after administration
- body fat before and after administration ([6]; allulose low-dose group and high-dose group, 12 weeks): slightly increased, but there was no statistically significant difference before and after administration
- body fat accumulation and muscle mass reduction ([6]; conclusion from analysis of body components, 12 weeks): inhibited
- Lean, 12 W, Mean [6, 13]: 40.24 kg
- Fat, 12 W, Mean [6, 13]: 26.31 kg
- Fat, Difference (average change at 12 weeks compared to base time) [6, 7]: 0.25 ± 1.34 kg
- Lean, Difference (12 W vs baseline) [6, 7]: -0.22 ± 1.08 kg
- Lean, 12 W, Mean [6, 14]: 42.26 kg
- Fat, 12 W, Mean [6, 14]: 26.80 kg
- Fat, Difference (average change at 12 weeks compared to base time) [6, 9]: 0.16 ± 0.91 kg
- Lean, Difference (12 W vs baseline) [6, 9]: 0.05 ± 0.89 kg
